target: vanilloid receptor 1 (VR1/TRPV1 receptor) (Homo sapiens, UniProt Q8NER1); assay: FLIPR functional assay (Ca2+ influx, capsaicin) on the vanilloid receptor 1; assay type: cell-based; settings: capsaicin (Cap) stimulus, compound at 5 μM, read-out: inhibition (as a percentage) Cap, (human being)

| Compound | inhibition at 5 µM |
| --- | --- |
| CC(C(=O)NCc1ccc(C(F)(F)F)nc1N1CCCC1)c1cccc(CNS(C)(=O)=O)c1 (centres unmarked) [Example 2, 2-(3-(methylsulfonamidomethyl)phenyl)-N-((2-(pyrrolidin-1-yl)-6-(trifluoromethyl)pyridin-3-yl)methyl)propanamide] | 48% |
| CCNc1nc(C(F)(F)F)ccc1CNC(=O)C(C)c1ccc(CNS(C)(=O)=O)c(F)c1 (centres unmarked) [Example 8, N-((2-(ethylamino)-6-(trifluoromethyl)pyridin-3-yl)methyl)-2-(3-fluoro-4-(methylsulfonamidomethyl)phenyl)propanamide] | 71% |
| COC1CN(c2nc(C(F)(F)F)ccc2CNC(=O)C(C)c2ccc(CNS(C)(=O)=O)c(F)c2)C1 (centres unmarked) [Example 14, 2-(3-fluoro-4-(methylsulfonamidomethyl)phenyl)-N-((2-(3-methoxyazetidin-1-yl)-6-(trifluoromethyl)pyridin-3-yl)methyl)propanamide] | 46% |
| CC(C(=O)NCc1ccc(C(F)(F)F)nc1N1CCOCC1)c1ccc(CNS(C)(=O)=O)c(F)c1 (centres unmarked) [Example 35, 2-(3-fluoro-4-(methylsulfonamidomethyl)phenyl)-N-((2-morpholino-6-(trifluoromethyl)pyridin-3-yl)methyl)propanamide] | 53% |

same assay, conditions: functional (f), capsaicin (Cap) stimulus, Ki from IC50 by Cheng-Prusoff, read-out: (f) Ki (human being) [nM] Cap

| Compound | Ki |
| --- | --- |
| CS(=O)(=O)NCc1ccc(NC(=O)NCc2ccc(C(F)(F)F)nc2N2CCCC2)cc1 [Example 4, N-(4-(3-((2-(pyrrolidin-1-yl)-6-(trifluoromethyl)pyridin-3-yl)methyl)ureido)benzyl)methanesulfonamide] | 26 nM |
| CC1CCN(c2nc(C(F)(F)F)ccc2CNC(=O)Nc2ccc(CNS(C)(=O)=O)cc2)CC1 [Example 5, N-(4-(3-((2-(4-methylpiperidin-1-yl)-6-(trifluoromethyl)pyridin-3-yl)methyl)ureido)benzyl)methanesulfonamide] | 4 nM |
| CC1CCN(c2nc(C(F)(F)F)ccc2CNC(=O)C(C)c2ccc(CNS(C)(=O)=O)cc2)CC1 (centres unmarked) [Example 6, N-((2-(4-methylpiperidin-1-yl)-6-(trifluoromethyl)pyridin-3-yl)methyl)-2-(4-(methylsulfonamidomethyl)phenyl)propanamide] | 11 nM |
| CCCCNc1nc(C(F)(F)F)ccc1CNC(=O)C(C)c1ccc(CNS(C)(=O)=O)c(F)c1 (centres unmarked) [Example 9, N-((2-(butylamino)-6-(trifluoromethyl)pyridin-3-yl)methyl)-2-(3-fluoro-4-(methylsulfonamidomethyl)phenyl)propanamide] | 95 nM |
| CC(C(=O)NCc1ccc(C(F)(F)F)nc1N1CCCC1)c1ccc(CNS(C)(=O)=O)c(F)c1 (centres unmarked) [Example 17, 2-(3-fluoro-4-(methylsulfonamidomethyl)phenyl)-N-((2-(pyrrolidin-1-yl)-6-(trifluoromethyl)pyridin-3-yl)methyl)propanamide] | 23 nM |
| CC(C(=O)NCc1ccc(C(F)(F)F)nc1N1CCCCC1)c1ccc(CNS(C)(=O)=O)c(F)c1 (centres unmarked) [Example 21, 2-(3-fluoro-4-(methylsulfonamidomethyl)phenyl)-N-((2-(piperidin-1-yl)-6-(trifluoromethyl)pyridin-3-yl)methyl)propanamide] | 5 nM |
| CC1CCN(c2nc(C(F)(F)F)ccc2CNC(=O)Nc2ccc(CNS(C)(=O)=O)c(F)c2)CC1 [Example 24, N-(2-fluoro-4-(3-((2-(4-methylpiperidin-1-yl)-6-(trifluoromethyl)pyridin-3-yl)methyl)ureido)benzyl)methanesulfonamide] | 5 nM |
| CC1CCN(c2nc(C(F)(F)F)ccc2CNC(=O)Cc2ccc(CNS(C)(=O)=O)c(F)c2)CC1 [Example 25] | 4 nM |
| CC1CCN(c2nc(C(C)(C)C)ccc2CNC(=O)C(C)c2ccc(CNS(C)(=O)=O)c(F)c2)CC1 (centres unmarked) [Example 28, N-((6-tert-butyl-2-(4-methylpiperidin-1-yl)pyridin-3-yl)methyl)-2-(3-fluoro-4-(methylsulfonamidomethyl)phenyl)propanamide] | 5 nM |
| CC1CCN(c2cc(C(F)(F)F)ccc2CNC(=O)C(C)c2ccc(CNS(C)(=O)=O)c(F)c2)CC1 (centres unmarked) [Example 29, 2-(3-fluoro-4-(methylsulfonamidomethyl)phenyl)-N-(2-(4-methylpiperidin-1-yl)-4-(trifluoromethyl)benzyl)propanamide] | 5 nM |
| CC1CCN(c2nc(C(F)(F)F)ccc2CNC(=O)C(C)c2ccc(CNS(C)(=O)=O)c(F)c2)CC1 (centres unmarked) [Example 30, 2-(3-fluoro-4-(methylsulfonamidomethyl)phenyl)-N-((2-(4-methylpiperidin-1-yl)-6-(trifluoromethyl)pyridin-3-yl)methyl)propanamide] | 8 nM |
| CC(C(=O)NCc1ccc(C(F)(F)F)nc1N1CCC(c2ccccc2)(N(C)C)CC1)c1ccc(CNS(C)(=O)=O)c(F)c1 (centres unmarked) [Example 34, N-((2-(4-(dimethylamino)-4-phenylpiperidin-1-yl)-6-(trifluoromethyl)pyridin-3-yl)methyl)-2-(3-fluoro-4-(methylsulfonamidomethyl)phenyl)propanamide] | 61 nM |
| CC(C(=O)NCc1ccc(C(F)(F)F)nc1N1CCCC1)c1ccc(CNS(C)(=O)=O)c(Cl)c1 (centres unmarked) [Example 45, 2-(3-chloro-4-(methylsulfonamidomethyl)phenyl)-N-((2-(pyrrolidin-1-yl)-6-(trifluoromethyl)pyridin-3-yl)methyl)propanamide] | 80 nM |
| CC1CCN(c2nc(C(F)(F)F)ccc2CNC(=O)C(C)c2ccc(CNS(C)(=O)=O)c(Cl)c2)CC1 (centres unmarked) [Example 46, 2-(3-chloro-4-(methylsulfonamidomethyl)phenyl)-N-((2-(4-methylpiperidin-1-yl)-6-(trifluoromethyl)pyridin-3-yl)methyl)propanamide] | 5 nM |
| CC1CCN(c2nc(C(F)(F)F)ccc2CNC(=O)Nc2ccc(CNS(C)(=O)=O)c(O)c2)CC1 [Example 47, N-(2-hydroxy-4-(3-((2-(4-methylpiperidin-1-yl)-6-(trifluoromethyl)pyridin-3-yl)methyl)ureido)benzyl)methanesulfonamide] | 6 nM |
| COc1cc(C(C)C(=O)NCc2ccc(C(F)(F)F)nc2N2CCCC2)ccc1CNS(C)(=O)=O (centres unmarked) [Example 48, 2-(3-methoxy-4-(methylsulfonamidomethyl)phenyl)-N-((2-(pyrrolidin-1-yl)-6-(trifluoromethyl)pyridin-3-yl)methyl)propanamide] | 87 nM |
| COc1cc(NC(=O)NCc2ccc(C(F)(F)F)nc2N2CCC(C)CC2)ccc1CNS(C)(=O)=O [Example 49, N-(2-methoxy-4-(3-((2-(4-methylpiperidin-1-yl)-6-(trifluoromethyl)pyridin-3-yl)methyl)ureido)benzyl)methanesulfonamide] | 12 nM |
| Cc1cc(NC(=O)NCc2ccc(C(F)(F)F)nc2N2CCCC2)ccc1CNS(C)(=O)=O [Example 52, N-(2-methyl-4-(3-((2-(pyrrolidin-1-yl)-6-(trifluoromethyl)pyridin-3-yl)methyl)ureido)benzyl)methanesulfonamide] | 46 nM |
| Cc1cc(NC(=O)NCc2ccc(C(F)(F)F)nc2N2CCC(C)CC2)ccc1CNS(C)(=O)=O [Example 53, N-(2-methyl-4-(3-((2-(4-methylpiperidin-1-yl)-6-(trifluoromethyl)pyridin-3-yl)methyl)ureido)benzyl)methanesulfonamide] | 5 nM |
| CCS(=O)(=O)NCc1ccc(C(C)C(=O)NCc2ccc(C(F)(F)F)nc2N2CCCC2)cc1F (centres unmarked) [Example 54, 2-(4-(ethylsulfonamidomethyl)-3-fluorophenyl)-N-((2-(pyrrolidin-1-yl)-6-(trifluoromethyl)pyridin-3-yl)methyl)propanamide] | 76 nM |
| NS(=O)(=O)NCc1ccc(CCC(=O)NCc2ccc(C(F)(F)F)nc2N2CCCC2)cc1 [Example 56, 1-{[2-pyrrolidin-1-yl-6-(trifluoromethyl)pyridin-3-yl]methyl}-3-{4-[(sulfamoylamino)methyl]phenyl}propanamide] | 38 nM |
| NS(=O)(=O)NCc1ccc(NC(=O)NCc2ccc(C(F)(F)F)nc2N2CCCC2)cc1 [Example 57, 1-{[2-pyrrolidin-1-yl-6-(trifluoromethyl)pyridin-3-yl]methyl}-3-{4-[(sulfamoylamino)methyl]phenyl}urea] | 85 nM |
| CC1CCN(c2nc(C(F)(F)F)ccc2CNC(=O)C(C)c2ccc(CNS(N)(=O)=O)cc2)CC1 (centres unmarked) [Example 58, N-((2-(4-methylpiperidin-1-yl)-6-(trifluoromethyl)pyridin-3-yl)methyl)-2-(4-((sulfamoylamino)methyl)phenyl)propanamide] | 2 nM |
| CC1CCN(c2nc(C(F)(F)F)ccc2CNC(=O)Nc2ccc(CNS(N)(=O)=O)cc2)CC1 [Example 59, 1-{[2-(4-methylpiperidin-1-yl)-6-(trifluoromethyl)pyridin-3-yl]methyl}-3-{4-[(sulfamoylamino)methyl]phenyl}urea] | 1 nM |
| NS(=O)(=O)NCc1ccc(NC(=O)NCc2ccc(C(F)(F)F)nc2N2CCCC2)cc1F [Example 60, 1-{3-fluoro-4-[(sulfamoylamino)methyl]phenyl}-3-{[2-pyrrolidin-1-yl-6-(trifluoromethyl)pyridin-3-yl]methyl}urea] | 20 nM |
| CC1CCN(c2nc(C(F)(F)F)ccc2CNC(=O)Nc2ccc(CNS(N)(=O)=O)c(F)c2)CC1 [Example 61, 1-{3-fluoro-4-[(sulfamoylamino)methyl]phenyl}-3-{[2-(4-methylpiperidin-1-yl)/-6-(trifluoromethyl)pyridin-3-yl]methyl}urea] | 1 nM |
| CC1CCN(c2nc(C(F)(F)F)ccc2CNC(=O)C(C)c2ccc(CN(C)S(C)(=O)=O)c(F)c2)CC1 (centres unmarked) [Example 63, 2-(3-fluoro-4-((N-methylmethylsulfonamido)methyl)phenyl)-N-((2-(4-methylpiperidin-1-yl)-6-(trifluoromethyl)pyridin-3-yl)methyl)propanamide] | 55 nM |
| CC1CCN(c2nc(C(F)(F)F)ccc2CNC(=O)C(C)c2ccc(CNS(N)(=O)=O)c(F)c2)CC1 (centres unmarked) [Example 64, 2-(3-fluoro-4-((sulfamoylamino)methyl)phenyl)-N-((2-(4-methylpiperidin-1-yl)-6-(trifluoromethyl)pyridin-3-yl)methyl)propanamide] | 4 nM |
